PMC4468608, “A distinct p53 target gene set predicts for response to the selective p53–HDM2 inhibitor NVP-CGM097” (eLife, 2015)
Where two headings read alike, the source gives them in different places.

Test system: cell lines from the Cancer Cell Line Encyclopedia (CCLE)
Assay: High-throughput cell viability assay, CCLE cell line panel (n = 356)
Format: cell-based, human
Conditions: Homo sapiens
Experimental: Cell lines were partitioned into sensitive and insensitive groups based on compound potency (IC50). […] All other cell lines were obtained from ATCC (American Type Culture Collection), DSMZ (Deutsche Sammlung von Mikroorganismen und Zellkulturen), and HSRRB (Health Science Research Resources Bank) and cultured in RPMI or Dulbecco's modified Eagle's medium plus 10% FBS (Invitrogen, Carlsbad, CA) at 37°C, 5% CO2.

Measured: IC50

COc1cc2c(cc1OC(C)C)[C@H](c1ccc(Cl)cc1)N(c1ccc(N(C)C[C@H]3CC[C@H](N4CCNC(=O)C4)CC3)cc1)C(=O)C2 [NVP-CFC218]
> 8 µM: HCC-56, TP53 MUT | HCT-15, HCT-15, TP53 MUT | HD-MY-Z, TP53 MUT | HEC-50B, TP53 MUT | HEC-59, TP53 MUT | HEL 92.1.7, HEL 92.1.7, TP53 MUT | HH, TP53 MUT | HLF, TP53 MUT | HMC-1-8, TP53 MUT | HPBALL, HPB-ALL, TP53 MUT | HSC-2, read-out: NVP- CFC218 IC50 (µM), cell line HSC-2, upper_aerodigestive_tract, TP53 MUT | HSC-3, HSC-3, TP53 MUT | HSC-4, HSC-4, TP53 MUT | HT-29, HT-29, TP53 MUT | Hs 683, Hs 683, TP53 MUT | Hs 729, TP53 MUT | Hs746T, Hs 746T, TP53 MUT | Hs766T, Hs 766T, TP53 MUT | Hs-578T, Hs 578T, TP53 MUT | HuCCT-1, HuCCT1, TP53 MUT | HuT78, HuT 78, TP53 MUT | Huh-7, HuH-7, TP53 MUT | IA-LM, TP53 MUT | IGR-39, IGR-39, TP53 MUT | IGROV-1, IGROV1, TP53 MUT | IM95, read-out: NVP- CFC218 IC50 (µM), cell line IM95, stomach, TP53 WT | IPC-298, IPC-298, TP53 MUT | IST-MES2, TP53 MUT | J82, TP53 MUT | JHH7, JHH-7, TP53 MUT | JHH-4, JHH-4, TP53 MUT | JMSU-1, JMSU-1, TP53 MUT | KARPAS-299, KARPAS-299, TP53 MUT | KATO III, TP53 MUT | KCL-22, KCL-22, TP53 MUT | KE-39, TP53 MUT | KMM-1, KMM-1, TP53 MUT | KMRC-1, read-out: NVP- CFC218 IC50 (µM), cell line KMRC-1, kidney, TP53 WT | KMS-11, KMS-11, TP53 WT | KMS-26, KMS-26, TP53 MUT | KMS-27, read-out: NVP- CFC218 IC50 (µM), cell line KMS-27, haem._and_lymphoid_tissue, TP53 WT | KMS-28BM, read-out: NVP- CFC218 IC50 (µM), cell line KMS-28BM, haem._and_lymphoid_tissue, TP53 WT | KNS-42, read-out: NVP- CFC218 IC50 (µM), cell line KNS-42, central_nervous_system, TP53 MUT | KNS-60, TP53 MUT | KNS-62, KNS-62, TP53 MUT | KO52, TP53 MUT | KP4, TP53 WT | KP-2, TP53 MUT | KP-3, TP53 MUT | KU812, KU812, TP53 MUT | KYSE-30, KYSE-30, TP53 MUT | KYSE-70, KYSE-70, TP53 MUT | KYSE-140, KYSE-140, TP53 MUT | KYSE-180, KYSE-180, TP53 MUT | KYSE-410, read-out: NVP- CFC218 IC50 (µM), cell line KYSE-410, oesophagus, TP53 MUT | KYSE-450, read-out: NVP- CFC218 IC50 (µM), cell line KYSE-450, oesophagus, TP53 MUT | KYSE-510, read-out: NVP- CFC218 IC50 (µM), cell line KYSE-510, oesophagus, TP53 MUT | KYSE-520, read-out: NVP- CFC218 IC50 (µM), cell line KYSE-520, oesophagus, TP53 MUT | L3.3, TP53 WT | L-363, L-363, TP53 MUT | L-428, read-out: NVP- CFC218 IC50 (µM), cell line L-428, haem._and_lymphoid_tissue, TP53 MUT | LC-1/sq-SF, TP53 MUT | LCLC-103H, TP53 MUT | LK-2, TP53 MUT | LN-18, LN-18, TP53 MUT | LN-229, read-out: NVP- CFC218 IC50 (µM), cell line LN-229, central_nervous_system, TP53 WT | LOU-NH91, LOU-NH91, TP53 MUT | LOX IMVI, TP53 WT | LS-1034, LS1034, TP53 MUT | LUDLU-1, LUDLU-1, TP53 MUT | Lu-65, LU65, TP53 MUT | MDA-MB-453, MDA-MB-453, TP53 WT | MDA-MB-468, MDA-MB-468, TP53 MUT | MEG-01, MEG-01, TP53 MUT | MFE-296, MFE-296, TP53 MUT | MFE-319, TP53 MUT | MG-63, MG-63, TP53 WT | MHH-ES-1, read-out: NVP- CFC218 IC50 (µM), cell line MHH-ES-1, bone, TP53 MUT | MIA PaCa-2, MIA PaCa-2, TP53 MUT | MKN-74, MKN74, TP53 MUT | MOG-G-CCM, TP53 MUT | MOG-G-UVW, TP53 WT | MOLM16, MOLM-16, TP53 MUT | MOR/CPR, TP53 MUT | MPP 89, TP53 WT | Malme-3M, read-out: NVP- CFC218 IC50 (µM), cell line Malme-3M, skin, TP53 WT | MeWo, TP53 MUT | Mono-Mac-1, MONO-MAC-1, TP53 MUT | NB-4, TP53 MUT | NCI-H23, NCI-H23, TP53 MUT | NCI-H211, NCI-H211, TP53 MUT | NCI-H358, NCI-H358, TP53 WT | NCI-H441, NCI-H441, TP53 MUT | NCI-H460, read-out: NVP- CFC218 IC50 (µM), cell line NCI-H460, lung, TP53 WT | NCI-H520, NCI-H520, TP53 MUT | NCI-H647, read-out: NVP- CFC218 IC50 (µM), cell line NCI-H647, lung, TP53 MUT | NCI-H650, NCI-H650, TP53 MUT | NCI-H747, NCI-H747, TP53 MUT | NCI-H810, NCI-H810, TP53 MUT | NCI-H889, NCI-H889, TP53 MUT | NCI-H1299, read-out: NVP- CFC218 IC50 (µM), cell line NCI-H1299, lung, TP53 WT | NCI-H1355, NCI-H1355, TP53 MUT | NCI-H1373, NCI-H1373, TP53 MUT | NCI-H1435, NCI-H1435, TP53 MUT | NCI-H1573, NCI-H1573, TP53 MUT | NCI-H1581, NCI-H1581, TP53 MUT | NCI-H1648, NCI-H1648, TP53 MUT | NCI-H1650, read-out: NVP- CFC218 IC50 (µM), cell line NCI-H1650, lung, TP53 MUT | NCI-H1651, NCI-H1651, TP53 MUT | NCI-H1693, read-out: NVP- CFC218 IC50 (µM), cell line NCI-H1693, lung, TP53 MUT | NCI-H1703, read-out: NVP- CFC218 IC50 (µM), cell line NCI-H1703, lung, TP53 MUT | NCI-H1734, NCI-H1734, TP53 MUT | NCI-H1792, NCI-H1792, TP53 MUT | NCI-H1915, NCI-H1915, TP53 MUT | NCI-H1975, NCI-H1975, TP53 MUT | NCI-H2009, NCI-H2009, TP53 MUT | NCI-H2087, NCI-H2087, TP53 MUT | NCI-H2110, NCI-H2110, TP53 MUT | NCI-H2172, NCI-H2172, TP53 WT | NCI-H2196, NCI-H2196, TP53 MUT | NCI-H2347, NCI-H2347, TP53 WT | NCI-H2444, NCI-H2444, TP53 MUT | NCI-H2452, NCI-H2452, TP53 WT | NCO2, TP53 MUT | OAW-42, read-out: NVP- CFC218 IC50 (µM), cell line OAW42, ovary, TP53 WT | OC 316, TP53 MUT | OCI-Ly10, OCI-LY10, TP53 MUT | OCI-M1, OCI-M1, TP53 MUT | OE19, read-out: NVP- CFC218 IC50 (µM), cell line OE19, oesophagus, TP53 MUT | OE33, OE33, TP53 MUT | ONS-76, ONS-76, TP53 WT | OPM-2, OPM-2, TP53 MUT | OV-90, OV-90, TP53 MUT | OVCAR-3, NIH:OVCAR-3, TP53 MUT | OVCAR-4, OVCAR-4, TP53 MUT | OVCAR-8, read-out: NVP- CFC218 IC50 (µM), cell line OVCAR-8, ovary, TP53 MUT | OVSAHO, TP53 MUT | P3HR-1, P3HR-1, TP53 MUT | P31-FUJ, P31/FUJ, TP53 MUT
2.38 µM: OCI-AML2, OCI-AML2, TP53 WT
1.9 µM: NCI-H2122, NCI-H2122, TP53 MUT
7.41 µM: HGC-27, HGC-27, TP53 MUT
7.24 µM: LP-1, TP53 MUT
3.12 µM: HEY A8, Hey-A8, TP53 WT
2.2 µM: KS-1, TP53 WT
1.2 µM: KP-N-SI9s, TP53 WT
1.73 µM: JHUEM-2, TP53 WT
0.69 µM: MOLM-13, MOLM-13, TP53 WT
1.38 µM: KE-97, KE-97, TP53 WT
1.16 µM: NALM-6, NALM-6, TP53 WT
3.38 µM: HCT 116 TP53(-/-), HCT 116, TP53 WT
3.55 µM: KMBC-2, TP53 MUT
2.5 µM: P12-Ichikawa, TP53 MUT
6.39 µM: NCI-H1944, NCI-H1944, TP53 WT
5.21 µM: MC116, MC116, TP53 MUT
6.44 µM: Hs 936.T, TP53 WT
1.95 µM: HepG2, Hep G2, TP53 WT
6.89 µM: KU-19-19, KU-19-19, TP53 WT
3.64 µM: JVM-3, JVM-3, TP53 WT
3.36 µM: NCI-H2052, NCI-H2052, TP53 WT
2.95 µM: KYM-1, TP53 WT
0.88 µM: NCI-H1666, NCI-H1666, TP53 WT
7.91 µM: HEC-151, TP53 MUT
3.86 µM: HT-144, HT-144, TP53 WT
6.92 µM: MFE-280, MFE-280, TP53 MUT
3.65 µM: Hs 695T, TP53 WT
7.62 µM: Loucy, TP53 MUT | MDA-MB-415, MDA-MB-415, TP53 MUT
3.61 µM: Hs 294T, TP53 MUT | K029AX, TP53 WT
2.71 µM: Lu-99, LU99, TP53 WT
